Read-outs that look alike come from different tables or passages of the source. Peptide text beside a SMILES is read from it. * marks the point of attachment. Cbz = O=C(OCc1ccccc1)*
Assays:
[1] = test system: H460 cells; test: In vitro cell proliferation inhibition under normoxia (96-well, CTG, 72 hours); format: cell-based, human; conditions: for inhibition at 0.025 µM / inhibition at 0.05 µM: NCI-H460, H460 cells; for inhibition at 0.025 µM: RITA 0.025 µM; for inhibition at 0.05 µM: RITA 0.05 µM
Protocol: Overview of the experimental process • 1) H460 cell suspension was added to a 96-well plate at 100 µL per well, with a cell density of 2000 /well. • 2) The cells were cultured overnight in an incubator at 37°C, 5% CO2. • 3) Compound Treatment
Monotherapy: After 24 hours of cell plating, each well was supplied with 99.5 µL of growth medium then added with 0.5µL of test compounds at different concentrations, shaken gently to ensure even mixing, and then placed at 37°C, 5% CO2 in an incubator.
(§1) Combination therapy: After 24 hours of cell plating, each well was supplied with 99 µL of growth medium then added with 0.5µL of the combined action compound Nutlin-3, shaken gently to ensure even mixing, and then placed in an incubator for 2 hours. Then each well was added with 0.5µL of test compounds at different concentrations, shaken gently to ensure even mixing, and then placed at 37°C, 5% CO2 in an incubator.
(§2) 4) The cell plate was placed in the incubator for 72 hours.
(§3) 5) The cell plate to be tested was placed at room temperature to equilibrium for 30 minutes, and 100µL of medium was discarded per well.
(§4) 6) 25µL of CTG reagent was added to each well, placed at a fast shaker to shake for 2 minutes, and placed at room temperature away from light for 30 minutes.
(§5) 7) The chemiluminescence signal value was read using a multifunctional microplate reader with a reading time of 1000 ms.
8) IC50 was calculated with Graph Pad Prism 5 software.
(§6) • 1) H460 and HPAF-II cell suspensions were added to a 96-well plate at 100 µL per well, with a cell density of 2000 /well and 20000/well, respectively. • 2) The cells were cultured overnight in an incubator at 37°C, 5% CO2. • 3) Compound Treatment
(§7) Combination therapy: After 24 hours of cell plating, 99 µL of growth medium was supplied to each well. Each well was added with 0.5 µL of Nutlin-3 or RITA, shaken gently to ensure even mixing, and then placed in an incubator for 2 hours. Then each well was added with 0.5µL of test compounds at different concentrations, shaken gently to ensure even mixing, and then placed at 37°C, 5% CO2 in an incubator.
(§8) Monotherapy: After 24 hours of cell plating, 99.5 µL of growth medium was supplied to each well. Then each well was added with 0.5µL of test compounds at different concentrations, shaken gently to ensure even mixing, and then placed at 37°C, 5% CO2 in an incubator.
(§9) 7) The chemiluminescence signal value was read using a multifunctional microplate reader with a reading time of 1000 ms. The corresponding inhibition rate data were calculated.
(§10) • 1) NCI-H460, NCI-H460 P53KO # 1 cell suspensions were added to a 96-well plate at 100 µL per well, with a cell density of 2000 /well. • 2) The cells were cultured overnight in an incubator at 37°C, 5% CO2. • 3) Compound Treatment
as §1, with “plating,” for “plating, each well was supplied with”, “of” for “of growth”, “medium was supplied to each well. Each well was” for “medium then”, “of” for “of the”, “action compound,” for “action compound Nutlin-3,”
(§11) 8) The ICso (half maximal inhibitory concentration) values were calculated using GraphPad Prism 5 software.

[2] = test system: H460 P53 KO #1; test: In vitro cell proliferation inhibition under normoxia, p53 knockout cells; format: cell-based, human
Protocol: The p53 CRISPR/Cas9 KO plasmid (human) and p53 HDR plasmid (human) were purchased from Santa Cruz Company to construct H460 P53 KO cell lines, namely p53 knockout (KnockOut) H460 cell lines. Three groups of H460 P53 KO cell lines were constructed with numbers of H460 P53 KO # 1, H460 P53 KO # 7, and H460 P53 KO # 12.
After co-incubation for 15 minutes, they were added dropwise to the culture medium and mixed well.
After 48 h, 2 µg/mL puromycin was added for screening.
When the cell colonies grew to a sufficient size, single colonies were picked and cultured.
When the cell number reached a sufficient quantity, samples were collected for WB identification of the colonies.
H460 P53 KO cell lines, i.e. H460 P53 KO # 1, H460 P53 KO # 7, H460 P53 KO # 12 cell lines were used in experiments, respectively.
as §10, §8
as §1, with “plating,” for “plating, each well was supplied with”, “of” for “of growth”, “medium was supplied to each well. Each well was” for “medium then”, “of” for “of the”, “action compound,” for “action compound Nutlin-3,”
as §2, §3, §4, §5, §11

[3] = test system: RAD51 protein in H460 cells; test: WB detection of RAD51 protein amount, degradation and half-life; format: cell-based; conditions: 0.1-1 nM AST-3424, 5 µM Nutlin-3, 5 µM MG-132, 24 hours (Figures 14-17)
Protocol: In the first, the second and the third experiments of the effect of AST-3424 in combination with Nutlin-3 on Ser15-p53, Ser20-p53, Total p53, MDM2 and p21 proteins in H460 cells in example 5, the applicant also performed WB detection of RAD51 protein, with the results shown in Figures 14, 15 and 16.
• 1) H460 cell suspension was added to a 24-well plate, with a cell density of 100000 /well and 995 µL of medium per well. • 2) The cells were cultured overnight in an incubator at 37°C, 5% CO2. • 3) Compound Treatment
Monotherapy: After 24 hours of cell plating, each well was supplied with 5µL of test compounds at different concentrations: 1% DMSO, 0.1nM AST-3424 and 5 µM Nutlin-3, shaken gently to ensure even mixing, and then placed at 37°C, 5% CO2 in an incubator. After continuing culture for 24 hours, the cells were collected.
Combination therapy: After 24 hours of cell plating, • Adding 0.1 nM AST-3424 for pre-treatment for 2 hours, and then adding 5 µM Nutlin-3 for co-treatment for 22 hours; • Adding 1% DMSO and 5 µM MG-132 for co-treatment for 24 hours; • Adding 0.1 nM AST-3424 and 5 µM MG-132 for co-treatment for 24 hours; • Adding 5 µM Nutlin-3 and 5 µM MG-132 for co-treatment for 24 hours; • Adding 0.1 nM AST-3424 for pre-treatment for 2 hour, and then adding 5 µM Nutlin-3 for treatment for 16 hours, and then adding 5µM MG-132 for co-treatment for 6 hours. […]

[4] = test system: HPAF-II cells; test: In vitro cell proliferation inhibition (96-well, CTG, 72 hours); format: cell-based; conditions: Homo sapiens, HPAF-II cells, 72 hours; for inhibition at 2.5 µM: RITA 2.5 µM; for inhibition at 5 µM: RITA 5 µM
Protocol: as §6, §7, §8, §2, §3, §4, §9

CN(C)C(=O)c1cccc(Oc2cc3c(cc2[N+](=O)[O-])OCCC3OP(=O)(N2CC2)N2CC2)c1 (centres unmarked) [Compound C]
IC50 ([1]; Homo sapiens, NCI-H460, 72 h, NCI-H460, normoxia, 72 hours, alone or with 3 µM AST-3021 as labelled (Example 13)): 2.05 nM | Ratio, combination therapy/ monotherapy ([1]; IC50 ratio, NCI-H460, + 3 µM AST-3021 versus alone (Example 13)): 305.37 | Ratio, Compound C/AST-3424 ([1]; IC50 ratio, NCI-H460, monotherapy): 4.77 | IC50 ([2]; Homo sapiens, NCI-H460, 72 h, NCI-H460 P53KO # 1, normoxia, 72 hours, alone or with 3 µM AST-3021 as labelled (Example 13)): 36.1 nM | Ratio, combination therapy/ monotherapy ([2]; IC50 ratio, NCI-H460 P53KO # 1, + 3 µM AST-3021 versus alone (Example 13)): 43.24 | Ratio, Compound C/AST-3424 ([2]; IC50 ratio, NCI-H460 P53KO # 1, monotherapy): 6.62 | Ratio, knockout / wild ([2]; IC50 ratio, NCI-H460 P53KO # 1 versus NCI-H460, monotherapy (Example 13)): 17.60

CC(C)C[C@@H](C=O)NC(=O)[C@H](CC(C)C)NC(=O)[C@H](CC(C)C)NC(=O)OCc1ccccc1 [MG-132] (Cbz-Leu-Leu-Leu-aldehyde)
RAD51 protein amount (WB) [3]: reversed the downregulation of RAD51 protein

OCc1ccc(-c2ccc(-c3ccc(CO)s3)o2)s1 [RITA]
inhibition at 0.025 µM ([1]; Homo sapiens, 72 hours, AST 0.5 nM, AST + RITA 0.5+0.025, read-out: Inhibition rate result, experimental group 1): 22.3% | inhibition at 0.05 µM ([1]; Homo sapiens, 72 hours, AST 0.5 nM, AST + RITA 0.5+0.05, read-out: Inhibition rate result, experimental group 2): 22.4% | inhibition at 0.025 µM ([1]; Homo sapiens, 72 hours, AST 1.5 nM, AST + RITA 1.5+0.025, read-out: Inhibition rate result, experimental group 3): 22.3% | inhibition at 0.05 µM ([1]; Homo sapiens, 72 hours, AST 1.5 nM, AST + RITA 1.5+0.05, read-out: Inhibition rate result, experimental group 4): 22.4% | inhibition at 2.5 µM ([4]; AST 60 nM, AST + RITA 60+2.5, read-out: Inhibition rate, experimental group 1): 2.86% | inhibition at 5 µM ([4]; AST 60 nM, AST + RITA 60+5, read-out: Inhibition rate, experimental group 2): 5.56% | inhibition at 2.5 µM ([4]; AST 200 nM, AST + RITA 200+2.5, read-out: Inhibition rate, experimental group 3): 2.86% | inhibition at 5 µM ([4]; AST 200 nM, AST + RITA 200+5, read-out: Inhibition rate, experimental group 4): 5.56% | inhibition at 2.5 µM ([4]; AST 1667 nM, AST + RITA 1667+2.5, read-out: Inhibition rate, experimental group 5): 2.86% | inhibition at 5 µM ([4]; AST 1667 nM, AST + RITA 1667+5, read-out: Inhibition rate, experimental group 6): 5.56% | inhibition at 2.5 µM ([4]; AST 5000 nM, AST + RITA 5000+2.5, read-out: Inhibition rate, experimental group 7): 2.86% | inhibition at 5 µM ([4]; AST 5000 nM, AST + RITA 5000+5, read-out: Inhibition rate, experimental group 8): 5.56%

Reference: EP4755396A1, “TREATMENT OF P53 GENE MUTATION OR DEFECT NEGATIVE CANCER AND TUMOR PATIENTS” (Ascentawits Pharmaceuticals, Ltd., priority 2023, dated 2025)
